Patent US11834663B2, “Fibrotic treatment” (Monash University, priority 2015, dated 2023)

Key:
Assay type in all cases: in vivo, mouse
Ang II-infused WT mice = assay: Angiotensin II infusion prevention model: systolic blood pressure (tail-cuff); conditions: adult WT mice, Ang II 800 ng/kg/min s.c. + HFI-419 500 ng/kg/min, 4 weeks; FIG. 1
Protocol: (§1) There are 8 different sets of in vivo experiments in this study: • A) Phenotypic characterisation of the heart and blood vessels in global IRAP knockout mice and their WT controls treated for 4 weeks with Angiotensin (Ang) II (800 ng/kg/min; s.c.) where mouse hearts and blood vessels were compared to tissue obtained from young WT and IRAP^−/− mice treated with saline. • B) Prevention of Ang II-induced changes in the cardiovascular system following IRAP inhibitor treatment. […]
All mice which underwent surgery were anaesthetized with Isoflurane (Isorrane) (5% induction and 2.5% maintenance) and an incision made in the midscapular region through which osmotic minipumps (Alzet model 2004, Alza Corp) were inserted for subcutaneous drug administration. […] Systolic blood pressure (SBP) was measured fortnightly using non-invasive tail-cuff plethysmography apparatus (MC4000 Blood Pressure Analysis System, Hatteras Instrument Inc) before drug treatment (week 0), at week 2 of treatment and end of treatment (week 4). At the end of drug treatment, body weight of mice was recorded. […]

[1] = system: hearts of aged (18-22 month old) WT mice; assay: Reversal of age-induced cardiac fibrosis and inflammation in aged WT mice (histology, immunofluorescence, western blot)
Protocol: There are 8 different sets of in vivo experiments in this study: • A) Phenotypic characterisation of the heart and blood vessels in global IRAP knockout mice and their WT controls treated for 4 weeks with Angiotensin (Ang) II (800 ng/kg/min; s.c.) where mouse hearts and blood vessels were compared to tissue obtained from young WT and IRAP^−/− mice treated with saline. • B) Prevention of Ang II-induced changes in the cardiovascular system following IRAP inhibitor treatment. In the prevention model, WT mice were treated with Ang II (800 ng/kg/min; s.c.)±the IRAP inhibitor (HFI-419; 500 ng/kg/min for 28 days) or HFI-vehicle (1 DMSO:3 HBC). • C) Phenotypic characterisation of the aged heart, kidney and blood vessels in the global IRAP knockout mice where aged WT and IRAP^−/− mouse hearts, kidneys and blood vessels were compared to tissue obtained from young WT and IRAP^−/− mice. • D) Reversal of the age-induced changes in the cardiovascular system following IRAP inhibitor treatment. In the reversal model, aged WT mice were treated with either saline, IRAP inhibitor (HFI-419 at 500 ng/kg/min; compound 1 at 500 ng/kg/min; compound 2 at 50 ng/kg/min) or HFI-vehicle (1 DMSO: 3 HBC) for 4 weeks. • E) Prevention of ischemic-reperfusion injury in isolated hearts taken from aged global IRAP knockout mice and aged IRAP inhibitor (HFI-419 at 500 ng/kg/min; s.c.) treated WT mice compared to age-matched vehicle-treated (1 DMSO:3 HBC; s.c.) WT controls. • F) Phenotypic characterization of cardiac function using echocardiography in the aged global IRAP knockout mice compared to aged and young WT mice. • G) Phenotypic characterization of liver steatosis in IRAP knockout mice in a high fat diet (HFD) model. • H) Reversal of the salt-induced fibrosis in the liver following IRAP inhibitor treatment.
All mice which underwent surgery were anaesthetized with Isoflurane (Isorrane) (5% induction and 2.5% maintenance) and an incision made in the midscapular region through which osmotic minipumps (Alzet model 2004, Alza Corp) were inserted for subcutaneous drug administration. The incision area was sutured with 6/0 DY silk (Dynek Pty Ltd) and antibiotic powder applied (Cicatrin, Pfizer) followed by intramuscular injection of the analgesic Cartrophen (0.1 ml of a 1.5 mg/ml stock solution; Biopharm Australia). Systolic blood pressure (SBP) was measured fortnightly using non-invasive tail-cuff plethysmography apparatus (MC4000 Blood Pressure Analysis System, Hatteras Instrument Inc) before drug treatment (week 0), at week 2 of treatment and end of treatment (week 4). At the end of drug treatment, body weight of mice was recorded. Mice were anaesthetized using Isoflurane inhalation and killed by cervical dislocation. Organs (heart, aorta, kidneys, brain, blood and tibia) were collected, with heart and aorta being dissected appropriately as described below. All organs were then snap frozen in liquid nitrogen, and stored at −80° C. if they were not used for vascular reactivity studies conducted on the day mice were killed.
To measure collagen deposition, frozen sections of heart, kidney or aorta (all 5 μm thickness) were air dried for 10 minutes and were brought through 3 times xylene (2 minutes each), and 3 times absolute alcohol washes before being rinsed in tap H2O for 30 seconds. Staining with an optimal concentration of picrosirius red (in this instance 0.05% picrosirius red diluted in saturated picric acid) was performed and left for an hour. Sections were then rinsed in water and differentiated in 0.01 M HCl for 2 minutes, followed by dehydration via 3 times absolute alcohol washes. Then, slides were brought through 3 times xylene washes before being cover slipped according to standard histological techniques using DPX as the mounting medium. […]

[2] = system: kidneys of aged (18-22 month old) WT mice; assay: Reversal of age-induced kidney fibrosis in aged WT mice
Protocol: as §1, with “treatment. In the prevention model, WT mice were treated with Ang II (800 ng/kg/min; s.c.)±the IRAP inhibitor (HFI-419; 500 ng/kg/min for 28 days) or HFI-vehicle (1 DMSO:3 HBC). • C) Phenotypic characterisation of the aged heart, kidney and blood vessels in the global IRAP knockout mice where aged WT and IRAP^−/− mouse hearts, kidneys and blood vessels were compared to tissue obtained from young WT and IRAP^−/− mice. • D) Reversal of the age-induced changes in the cardiovascular system following IRAP inhibitor treatment.” for “treatment.”
To measure collagen deposition, frozen sections of heart, kidney or aorta (all 5 μm thickness) were air dried for 10 minutes and were brought through 3 times xylene (2 minutes each), and 3 times absolute alcohol washes before being rinsed in tap H2O for 30 seconds. […] Images were taken under ×20 magnification, using bright field (Olympus, BX51) and circularized polarized light microscopy (DM IRB, Leica) while percentage of positive interstitial collagen staining per total field of view was quantified using ImageJ 1.46 software (Java, NIH), and averaged out from a total of eight views as the final percentage collagen content in a particular animal. […]

[3] = aged WT mice, HFI-419 4 weeks, FIG. 13
[4] = aged WT mice, HFI-419 4 weeks, FIG. 17
[5] = aged WT mice, HFI-419 4 weeks, FIG. 18

`CCOC(=O)C1=C(NC(C)=O)Oc2cc(O)ccc2C1c1cccnc1` (stereo not shown) [HFI-419] was tested, and the “Ang II-induced increase in systolic blood pressure” value (Ang II-infused WT mice) was “attenuates”, the “ICAM-1 expression in heart” value [1, 3] was “reduced” and the “MCP-1 expression in heart” value [1, 3] was “reduced”. The “NFκB activation in heart (phospho-IκBα)” value [1, 3] was “diminished”, the “macrophage expression in heart” value [1, 3] was “reduced” and the “superoxide production in heart (DHE)” value [1, 3] was “diminished”. For the same compound, the “MMP-2 protein level in heart” value [1, 4] was “no change”, the “MMP-8 protein expression in heart” value [1, 4] was “trend towards increased” and the “MMP-9 protein level in heart” value [1, 4] was “no change”. For the same compound, the “MMP-13 protein level in heart” value [1, 4] was “no change”, the “TIMP-1 protein levels in heart” value [1, 4] was “significantly decreased” and the “precursor and mature forms of collagen α1 Type I in heart (western blot)” value [1, 4] was “markedly reduced”. The “TGF-β1 expression in heart” value [1, 5] was “downregulation”, the “synthetic myofibroblasts (α-SMA) in heart” value [1, 5] was “downregulation” and the “IRAP expression in heart” value ([1]; ~20 month old WT mice, HFI-419 500 ng/kg/min s.c., 4 weeks, FIG. 8c) was “significantly decreased”. The “age-induced cardiac collagen deposition (picrosirius red)” value ([1]; ~20 month old WT mice, HFI-419 500 ng/kg/min s.c., 4 weeks, FIGS. 15, 16) was “reversed age-induced collagen deposition to the same level seen in young adult mice”, the “IRAP expression in kidneys” value ([2]; aged WT mice, HFI-419 500 ng/kg/min s.c., 4 weeks, FIG. 22b) was “tended to be decreased” and the “αSMA-positive myofibroblast expression in kidneys” value ([2]; aged WT mice, HFI-419 4 weeks vs vehicle, FIG. 24b) was “trend towards reduced”. The “age-induced collagen deposition in kidney (interstitial fibrosis, picrosirius red)” value ([2]; ~20 month old WT mice, HFI-419 500 ng/kg/min s.c., 4 weeks, FIG. 23) was “completely reverse”.
